According to publication PMC7852560 (Neuropsychopharmacology, 2020):
“And” between values parts separate entries of the source, which are not always exact repeats. Equal entries are not always repeated. Where two headings read alike, the source gives them in different places.

Experiments:
GluN1KD mice = assay: Pre-pulse inhibition in GluN1KD mice; type: in vivo; details: ABM300 10 mg/kg, OLA 1 mg/kg i.p.
Description: Pre-Pulse Inhibition (PPI): PPI of the acoustic startle response was measured on day 3, via SR-LAB equipment and software from San Diego Instruments. Accelerometers were calibrated to 700±5 mV and output voltages were amplified and analyzed for voltage changes using SR Analysis (San Diego Instruments, San Diego, CA, USA), and exported as an excel file. Background white noise was maintained at 65dB. PPI was measured in a 30-min test with 80 randomized trials of: (1) 10 trials pulse alone (2) 10 trials pre-pulse alone (for each pre-pulse), (3) 10 trials pre-pulse plus pulse (for each pre-pulse), and (4) 10 trials no pulse. 5 pulse alone trials were performed before and after the 80 trials, totaling 90 trials per run. The pre-pulse (4dB, 8dB, or 16dB) was presented 100ms prior to the startle pulse […]. The inter-stimulus interval (ISI) was randomized between 5 and 20s. Experimental mice were placed in a cylindrical tube on a platform in a soundproof chamber. Mice were allowed to acclimatize in the chamber and to the background noise for 300s, followed by 5 consecutive pulse alone trials, then by 80 randomized trials (as described above) and then 5 consecutive pulse alone trials. Pre-pulse inhibition was measured as a decrease in the amplitude of startle response to a 100dB acoustic startle pulse, following each pre-pulse (4dB, 8dB and 16dB).

5HT2A = target: T1, 5HT2A (Homo sapiens, UniProt P28223); assay: SafetyScreen44 panel: 5HT2A; type: binding; details: 1 µM
T1 construct: Eurofins Cerep
T1 sequence (P28223 whole entry): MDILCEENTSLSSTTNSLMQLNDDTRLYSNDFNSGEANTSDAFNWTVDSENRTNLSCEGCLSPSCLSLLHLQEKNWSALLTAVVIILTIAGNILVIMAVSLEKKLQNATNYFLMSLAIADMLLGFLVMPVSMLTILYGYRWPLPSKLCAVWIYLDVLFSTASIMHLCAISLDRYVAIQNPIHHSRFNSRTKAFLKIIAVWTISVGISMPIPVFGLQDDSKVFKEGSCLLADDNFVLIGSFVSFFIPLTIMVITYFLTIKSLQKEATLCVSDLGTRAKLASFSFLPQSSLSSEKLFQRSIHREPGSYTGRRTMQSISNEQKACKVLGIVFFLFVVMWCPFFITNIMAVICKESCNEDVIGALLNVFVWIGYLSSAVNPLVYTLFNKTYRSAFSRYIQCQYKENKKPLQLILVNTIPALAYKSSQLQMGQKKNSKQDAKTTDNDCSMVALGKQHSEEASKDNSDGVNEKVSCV
From the text: (§1) See https://www.eurofinsdiscoveryservices.com.

5HT2B = target: T2, 5HT2B (Homo sapiens, UniProt P41595); assay: SafetyScreen44 panel: 5HT2B; type: binding; details: 1 µM
T2 construct: Eurofins Cerep
T2 sequence (P41595 whole entry): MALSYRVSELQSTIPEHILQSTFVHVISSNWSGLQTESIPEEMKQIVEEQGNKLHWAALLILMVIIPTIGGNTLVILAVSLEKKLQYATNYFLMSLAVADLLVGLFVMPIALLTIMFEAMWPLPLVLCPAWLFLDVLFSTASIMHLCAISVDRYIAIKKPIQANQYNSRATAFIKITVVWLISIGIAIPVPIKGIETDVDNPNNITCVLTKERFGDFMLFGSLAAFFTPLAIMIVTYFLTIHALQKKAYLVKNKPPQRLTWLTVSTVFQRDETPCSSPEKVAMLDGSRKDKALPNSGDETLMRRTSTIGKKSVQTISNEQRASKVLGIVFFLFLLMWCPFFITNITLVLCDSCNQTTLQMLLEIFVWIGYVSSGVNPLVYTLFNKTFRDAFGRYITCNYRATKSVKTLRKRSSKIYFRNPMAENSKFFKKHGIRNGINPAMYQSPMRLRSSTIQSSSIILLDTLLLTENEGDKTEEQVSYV
From the text: as §1

[1] = test system: 44 different receptors, ion channels and enzymes; details: 1 µM
Description: (§2) The screen assesses the selectivity of the compound on a diverse panel of targets that includes GPCRs, drug transporters, ion channels, nuclear receptors, kinases, and other non-kinase enzymes. The screen employs radioligand binding or enzyme assays for these 44 targets.
(§3) For receptor assays, binding was calculated as percent inhibition of the binding of a radioactively labeled ligand specific for each target. For enzyme assays, the inhibition effect was calculated as percent inhibition of control enzyme activity. Tests were performed in duplicate, and results are averages of those two tests. See https://www.eurofinsdiscoveryservices.com.

Male Sprague Dawley rats = details: 10 mg/kg i.p.
Description: Male Sprague Dawley rats (PD>63) were trained on a CAR protocol and responding following drug exposure was determined. […] Animals were trained to learn a house light (CS) as predictive of an avoidable 0.6mA scrambled foot shock (US). Each session consisted of 50 trials and animals avoided >70% of trials on the final acquisition session were tested for CAR during vehicle baseline, drug exposure, and re-emergence. In addition to CAR testing, both temperature and catalepsy were recorded in these animals (measure of potential CB1R agonism). Temperature: recorded on first day of drug exposure, prior to injection and 60-90-min. following drug exposure.

5HT3 = target: T3, 5HT3 (Homo sapiens, UniProt P46098); assay: SafetyScreen44 panel: 5HT3; type: binding; details: 1 µM
T3 construct: Eurofins Cerep
T3 sequence (P46098 24-478): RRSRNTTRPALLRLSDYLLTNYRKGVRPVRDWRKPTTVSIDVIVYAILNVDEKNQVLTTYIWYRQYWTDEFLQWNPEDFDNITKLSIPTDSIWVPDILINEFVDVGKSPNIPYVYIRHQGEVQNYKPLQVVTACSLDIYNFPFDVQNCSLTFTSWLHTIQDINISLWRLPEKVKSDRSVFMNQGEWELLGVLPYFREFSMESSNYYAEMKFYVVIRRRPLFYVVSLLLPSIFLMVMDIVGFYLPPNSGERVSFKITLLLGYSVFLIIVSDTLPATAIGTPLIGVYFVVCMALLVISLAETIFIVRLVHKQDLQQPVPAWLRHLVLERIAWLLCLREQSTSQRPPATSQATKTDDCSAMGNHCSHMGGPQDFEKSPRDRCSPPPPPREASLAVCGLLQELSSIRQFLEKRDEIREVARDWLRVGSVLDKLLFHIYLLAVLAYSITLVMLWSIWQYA
Description: as §2, §3

CB1R [2] = target: T4, CB1R (Homo sapiens, UniProt P21554); assay: cell-based
T4 sequence (P21554 whole entry): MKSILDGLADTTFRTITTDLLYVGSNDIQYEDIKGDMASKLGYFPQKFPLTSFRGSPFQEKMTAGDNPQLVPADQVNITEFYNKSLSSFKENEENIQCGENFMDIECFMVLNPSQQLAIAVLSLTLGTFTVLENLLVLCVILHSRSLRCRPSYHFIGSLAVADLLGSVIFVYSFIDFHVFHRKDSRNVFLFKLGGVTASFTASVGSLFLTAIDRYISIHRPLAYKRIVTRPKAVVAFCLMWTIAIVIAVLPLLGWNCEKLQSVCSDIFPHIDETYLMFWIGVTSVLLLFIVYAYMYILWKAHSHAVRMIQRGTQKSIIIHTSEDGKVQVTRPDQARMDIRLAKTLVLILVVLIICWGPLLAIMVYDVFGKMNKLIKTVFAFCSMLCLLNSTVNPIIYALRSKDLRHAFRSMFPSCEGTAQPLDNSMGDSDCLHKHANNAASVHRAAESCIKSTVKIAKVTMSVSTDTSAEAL

5HT1A = target: T5, 5HT1A (Homo sapiens, UniProt P08908); assay: SafetyScreen44 panel: 5HT1A; type: binding; details: 1 µM
T5 construct: Eurofins Cerep
T5 sequence (P08908 1-422): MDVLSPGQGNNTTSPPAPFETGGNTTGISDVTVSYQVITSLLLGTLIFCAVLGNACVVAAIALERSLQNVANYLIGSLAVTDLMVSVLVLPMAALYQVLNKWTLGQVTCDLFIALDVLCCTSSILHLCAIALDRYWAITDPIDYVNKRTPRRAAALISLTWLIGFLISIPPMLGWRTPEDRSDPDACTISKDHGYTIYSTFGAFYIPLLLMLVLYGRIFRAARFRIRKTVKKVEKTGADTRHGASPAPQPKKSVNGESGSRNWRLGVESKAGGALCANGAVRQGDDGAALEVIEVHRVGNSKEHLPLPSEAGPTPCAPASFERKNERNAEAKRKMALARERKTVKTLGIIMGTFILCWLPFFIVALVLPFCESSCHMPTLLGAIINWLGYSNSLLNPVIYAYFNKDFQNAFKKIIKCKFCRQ
Description: as §2, §3

CB1R [3] = target: T4, CB1R; assay: cell-based; set-up: beta-galactosidase enzyme fragment (EFC; ProLink by own knowledge); details: in the presence of the EC80 of CP55,940 (10 nM)
Description: The PathHunter® β-Arrestin assay was conducted by Eurofins Pharma Discovery Services (further details can be found at https://www.eurofinsdiscoveryservices.com).
The PathHunter® β-Arrestin assay was conducted by Eurofins Pharma Discovery Services. The assay monitors the activation of a GPCR in a homogenous, non-imaging assay format using a technology developed by DiscoverX called Enzyme Fragment Complementation (EFC) with β-galactosidase (β-Gal) as the functional reporter. Vehicle concentration was 1% DMSO in these assays.

NMDA = assay: SafetyScreen44 panel: NMDA; type: binding; details: 1 µM
From the text: as §1

Compound: CCc1c(-c2nnc(Nc3ccccc3)o2)[nH]c2ccc(Cl)cc12 [ABM300, 5-(5-chloro-3-ethyl-1H-indol-2-yl)-N-phenyl-1,3,4-oxadiazol-2-amine]
- acoustic startle response (GluN1KD mice): did not respond
- sensorimotor gating deficits (PPI; 4, 8, 16 dB) (GluN1KD mice): did not respond
- binding to 5HT2A (5HT2A): did not display any significant binding
- binding to 5HT2B (5HT2B): did not display any significant binding
- binding to SafetyScreen44 targets [1]: did not display any significant binding
- catalepsy (Male Sprague Dawley rats): did not induce catalepsy
- changes in body temperature (Male Sprague Dawley rats): did not induce catalepsy, or changes in body temperature
- binding to 5HT3 (5HT3): did not display any significant binding
- IC50 (CB1R [2]; read-out: IC50, reduction in ERK1/2 phosphorylation): 47 nM
- IC50 (CB1R [2]; read-out: pIC50, reduction in ERK1/2 phosphorylation (converted)): 41.7 nM
- binding to 5HT1A (5HT1A): did not display any significant binding
- IC50 (CB1R [3]; read-out: IC50, reduction in β-arrestin recruitment): 49.7 nM and 50 nM
- IC50 (CB1R [3]; read-out: pIC50, reduction in β-arrestin recruitment (converted)): 49 nM
- binding to NMDA (NMDA): did not display any significant binding
